Measured values: patent US10556860B2, “hTERT modulators and methods of use” (Arizona Board of Regents on Behalf of the University of …, priority 2015, dated 2020)

Key:
[1] = test system: G138/139A mutant hTERT 5-12 fragment; assay: Single-molecule laser tweezer unfolding, G138/139A mutant; type: biochemical, human; settings: 2 μM
Protocol: Single-molecule tweezer. Preparation of the DNA construct. The DNA construct that contains the single-stranded hTERT 5-12 fragment was prepared by sandwiching the target sequence between two double-stranded DNA handles. Five deoxythymidines were added at both ends of the hTERT 5-12 fragment to reduce the interference from the double-stranded DNA handles on the target sequence. Briefly, the 2690-base-pair double-stranded DNA handle was prepared through restriction enzyme digestion of the pEGFP vector (Clontech, Mountain View, Calif.). In the first step, the vector was digested by Sad and Eagl restriction enzymes, followed by purification with agarose gel. The EagI end of the DNA fragment was labeled with digoxigenin using terminal deoxynucleotidyl transferase. […]
Single-molecule force-ramp assay. […] After this, the two beads were moved apart to increase the tension on the DNA tether with a loading rate of 5.5 pN/s, and the force-extension (F-X) curves were recorded using the LabVIEW program (National Instruments Corp., Austin, Tex.).
The F-X curves were filtered by Savitzky-Golay function with a 10 ms time constant in the MATLAB program (The Math Works, Natick, Mass.). […] The change-in-contour length (ΔL) was calculated based on the Δx through the worm-like chain model (equation 1). […]

[2] = test system: hTERT core promoter (pGL3-WT); assay: Luciferase assay, pGL3-WT in MCF7 cells; type: cell-based, human; settings: 24 h
Protocol: (§1) Luciferase assay. From gDNA extracted from HeLa cells, the hTERT core promoter region, including −350 bp to +12 from the transcription start site, was amplified using a pair of primers, including KpnI and NheI restriction sites, for cloning of pGL3-hTERT with WT promoter sequence. Mutant constructs were generated by PCR-based site-directed mutagenesis. The sequence of each construct was confirmed by sequencing analysis. MCF7 cells in 24-well plate were transfected with 200 ng of pGL3 construct and 5 ng of pRL-TK by Fugene® HD Transfection Reagent and then incubated for 6 h. Media were replaced by fresh ones and the cells were treated with GTC365 or BRACO-19. The same volume of DMSO served as a control. […]
(§2) Since MYC is a key transcription factor for activation of the hTERT gene by binding to an E-box in the hTERT promoter region and is one of the oncogenes having a G-quadruplex structure in the promoter region, it was important to confirm that GTC365 affects the repression of hTERT promoter activity directly by binding to the G-quadruplex structure formed in the hTERT promoter and not by binding to the G-quadruplex in the MYC promoter. To distinguish between these possibilities, the luciferase activity of the pGL3-WT and pGL3-E-box mutant constructs were determined after treatment with GTC365. […]

BCL2 mRNA = assay: qPCR of BCL2 mRNA in MCF7 cells; type: cell-based, human; settings: 72 h
Protocol: qPCR. MCF7 and melanoma cells were treated with GTC365 and BRACO-19 for 72 h. Total RNA was extracted using an RNeasy mini-prep kit (Qiagen) and quantitated by measuring absorbance at 260 nm. cDNA was synthesized using a Takara PrimeScript™ RT Reagent Kit with gDNA eraser and then used as a template for qPCR. The qPCR was performed using Kapa Probe Fast qPCR Master Mix with ABI Taqman probes of hTERT (Hs00972656_m1), BCL2 (HS00608023_m1, FAM-labeled) or MYC (Hs00153408_m1), and GAPDH (Hs02758991_g1, VIC-labeled). The Ct values were measured by running Rotor-Gene Q, and the relative quantity of hTERT, BCL2, and MYC mRNA was obtained compared to GAPDH as an internal control.
BCL2 is a downstream molecule to hTERT such that BCL2 expression is activated by hTERT to repress apoptosis. To further define the effect of GTC365 on the transcription of hTERT, the relative mRNA levels of MYC and BCL2 were determined by quantitative PCR analysis in MCF7 cells after treatment with GTC365 for 72 h. […] A series of GTC260 analogs were synthesized and their effect on hTERT gene expression in MCF7A and U87 cells determined (FIG. 7). […] Therefore, GTC365 directly repressed the transcription of hTERT and then led to a downstream decrease of BCL2 expression.

[3] = test system: hTERT core promoter E-box Mut construct; assay: Luciferase assay, pGL3-E-box mutant in MCF7 cells; type: cell-based, human; settings: 24 h
Protocol: as §1, §2

Row | SMILES | population of fully folded structures [1] | luciferase activity [2] | effect on BCL2 mRNA level (BCL2 mRNA) | luciferase activity [3] | decrease of BCL2 mRNA level (BCL2 mRNA; 1 μM)
1 | CN(C)c1ccc(Nc2c3ccc(NC(=O)CCN4CCCC4)cc3nc3cc(NC(=O)CCN4CCCC4)ccc23)cc1 [BRACO-19, reference compound] | minimallypromoted the fully folded structure | decreased | no significant effect | failed to reduce | 
2 | N=C(N)NCCCS(=O)(=O)Nc1ccc(Nc2c3ccccc3nc3cc([N+](=O)[O-])ccc23)cc1 [GTC365] | significantly recovered | dose-dependent decrease |  | dose-dependent decrease | up to 18%
